The record followed here is US9789165B2 (Sanofi, priority 2013, dated 2017).

SMILES strings stand for the structures. ≈ marks a conversion by molar mass, not a printed value. Like-named read-outs stand apart in the source and are kept apart here. Square brackets hold non-standard residues; d marks the D form. Peptide text beside a SMILES is read from it. Nle = CCCC[C@H](N)C(=O)O; Aib = CC(C)(N)C(=O)O

Data set [1] is classed as physicochemical. The conditions noted are these: buffer, 168 h. As to the method:
After that time course, the sample was centrifuged for 20 min at 4000 rpm and the supernatant was analysed with HPLC-UV.
For determination of the amount of the remaining peptide, the peak areas of the target compound at t0 and t7 were compared, resulting in “% remaining peptide”, following the equation % remaining peptide=[(peak area peptide t7)×100]/peak area peptide t0.
The chemical stability is expressed as “% remaining peptide”.
(§1) As HPLC/UPLC method, method D or E has been used.

In data set [2] the target is T1, human glucagon receptor (hGLUC R) (Homo sapiens, UniProt P47871).
T1 construct: expressed in transfected cells
T1 sequence (P47871 26-477): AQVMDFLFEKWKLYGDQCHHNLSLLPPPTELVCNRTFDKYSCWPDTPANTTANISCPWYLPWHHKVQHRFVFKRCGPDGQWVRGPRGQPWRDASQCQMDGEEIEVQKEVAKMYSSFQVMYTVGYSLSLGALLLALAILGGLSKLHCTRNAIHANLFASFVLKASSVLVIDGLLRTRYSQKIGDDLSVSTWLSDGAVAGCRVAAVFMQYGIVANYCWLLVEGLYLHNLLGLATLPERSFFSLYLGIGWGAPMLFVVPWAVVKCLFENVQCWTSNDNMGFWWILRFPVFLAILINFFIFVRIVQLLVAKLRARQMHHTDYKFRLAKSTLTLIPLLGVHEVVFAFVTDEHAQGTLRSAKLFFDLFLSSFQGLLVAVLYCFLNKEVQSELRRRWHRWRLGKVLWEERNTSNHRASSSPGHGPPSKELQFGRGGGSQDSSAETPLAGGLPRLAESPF
As to the kind of experiment: cAMP response of HEK-293 cells stably expressing human glucagon receptor (HTRF). The conditions noted are these: Table 6; cAMP formation. It counts as cell-based. As to the method:
cAMP content of cells was determined using a kit from Cisbio Corp. (cat. no. 62AM4PEC) based on HTRF (Homogenous Time Resolved Fluorescence). For preparation, cells were split into T175 culture flasks and grown overnight to near confluency in medium (DMEM/10% FBS). Medium was then removed and cells washed with PBS lacking calcium and magnesium, followed by proteinase treatment with accutase (Sigma-Aldrich cat. no. A6964). Detached cells were washed and resuspended in assay buffer (1×HBSS; 20 mM HEPES, 0.1% BSA, 2 mM IBMX) and cellular density determined. They were then diluted to 400000 cells/ml and 25 μl-aliquots dispensed into the wells of 96-well plates. For measurement, 25 μl of test compound in assay buffer was added to the wells, followed by incubation for 30 minutes at room temperature.
Background: In TR-FRET formats the signal depends on donor and acceptor labels being close together.

Data set [3] relates to female diabetic dbdb-mice. As to the kind of experiment: Glucose lowering in non-fasted female diabetic dbdb-mice. It counts as in vivo. Conditions: 100 μg/kg s.c., baseline on average 29 mmol/l. As to the method: Female diabetic dbdb-mice (BKS.Cg−+Leprdb/+Leprdb/OlaHsd) 10 weeks of age at study start were used. Mice were habituated to feeding and housing conditions for at least 2 weeks. 7 days prior to study start, HbA1c were determined to allocate mice to groups, aiming to spread low, medium and high HbA1c-values and in consequence the group-means (n=8), as equally as possible. On the day of study, food was removed, directly before sampling for baseline glucose assessment (t=0 min). Immediately afterwards, compounds or vehicle (phosphor buffered saline, PBS) were administered subcutaneously, 100 μg/kg, 10 ml/kg. Afterwards, blood samples were drawn by tail tip incision at 15, 30, 60, 90, 120, 150, 180, 240, 360, 480 min and 24 h. Food was re-offered after the 480 min-sampling.
Data were analysed by 2-W-ANOVA on repeated measurements, followed by Dunnett's test as post-hoc assessment, level of significance p<0.05.
Female dbdb-mice, received 100 μg/kg of SEQ ID NO: 8, SEQ ID NO: 9 or phosphate buffered saline (vehicle control) subcutaneously, at time 0 min.

A short description of data set [4]: Solubility testing in buffer systems, HPLC-UV of supernatant. It counts as physicochemical. Conditions: buffer system. As to the method:
Prior to the testing of solubility and stability of a peptide batch, its content was determined. Therefore, two parameters were investigated, its purity (HPLC-UV) and the amount of salt load of the batch (ion chromatography).
Therefore, solutions from solid samples were prepared in different buffer systems with a concentration of 1.0 mg/mL compound based on the previously determined content. HPLC-UV was performed after 2 h of gentle agitation from the supernatant, which was obtained by 20 min of centrifugation at 4000 rpm.
This analysis also served as starting point (t0) for the stability testing.
as §1

Data set [5] is described as follows: Pharmacokinetic testing in mice, plasma LC/MS. It counts as in vivo. The conditions noted are these: mouse, sc, 1 mg/kg s.c. As to the method: Mice were dosed 1 mg/kg subcutaneously (s.c.). The mice were sacrified and blood samples were collected after 0.25, 0.5, 1, 2, 4, 8, 16 and 24 hours post application. Plasma samples were analyzed after protein precipitation via liquid chromatography mass spectrometry (LC/MS). PK parameters and half-life were calculated using WinonLin Version 5.2.1 (non-compartment model).
Pharmacokinetic profiles were determined as described in Methods.

Where [6] appears, read: pH 4.5, target concentration 1.0 mg/mL, read-out: Solubility (pH 4.5).
Where [7] appears, read: pH 7.4, target concentration 1.0 mg/mL, read-out: Solubility (pH 7.4).

In general, EC50 refers to the concentration giving half of the maximal effect. A high value points to a less potent agent. For orientation: solubility means how much of the substance goes into solution per volume. As usually defined, the Cmax is the peak of the concentration-time curve. As a reminder, the half-life is the time in which the quantity being followed falls by half. High values mean slow loss, low ones fast loss. For the compound `CC[C@H](C)[C@H](NC(=O)[C@H](CO)NC(=O)[C@H](CC(C)C)NC(=O)[C@H](CC(=O)O)NC(=O)[C@H](CO)NC(=O)[C@@H](NC(=O)[C@H](Cc1ccccc1)NC(=O)[C@@H](NC(=O)CNC(=O)[C@H](CCC(=O)O)NC(=O)C(C)(C)NC(=O)[C@@H](N)Cc1ccc(O)cc1)[C@@H](C)O)[C@@H](C)O)C(=O)N[C@@H](CCC(N)=O)C(=O)N[C@@H](CCSC)C(=O)N[C@@H](CCC(=O)O)C(=O)N[C@@H](CCCCN)C(=O)N[C@@H](CCCNC(=N)N)C(=O)N[C@@H](C)C(=O)N[C@@H](C)C(=O)NC(C)(C)C(=O)N[C@@H](CCC(=O)O)C(=O)N[C@@H](Cc1ccccc1)C(=O)N[C@H](C(=O)N[C@@H](CCC(=O)O)C(=O)N[C@@H](Cc1c[nH]c2ccccc12)C(=O)N[C@@H](CC(C)C)C(=O)N[C@@H](CCCCN)C(=O)N[C@@H](C)C(=O)NCC(=O)NCC(=O)N1CCC[C@H]1C(=O)N[C@@H](CO)C(=O)N[C@@H](CO)C(=O)NCC(=O)N[C@@H](C)C(=O)N1CCC[C@H]1C(=O)N1CCC[C@H]1C(=O)N1CCC[C@H]1C(=O)N[C@@H](CO)C(N)=O)[C@@H](C)CC` [SEQ ID NO: 8, Y-Aib-E-G-T-F-T-S-D-L-S-I-Q-M-E-K-R-A-A-Aib-E-F-I-E-W-L-K-A-G-G-P-S-S-G-A-P-P-P-S-NH2] (H-Y[Aib]EGTFTSDLSIQMEKRAA[Aib]EFIEWLKAGGPSSGAPPPS-NH2), in data set [1], the “Stability (pH 4.5), % remaining peptide” value came to 99% and the “Stability (pH 7.4), % remaining peptide” value came out at 92%. Also, the EC50 in data set [2] was over 1000 nM. For the same compound, in data set [3], the “maximal effect, glucose reduction” value was about 12 mmol/L. Moreover, the solubility at 2 h in data set [4] (setting [6]) is over 1000 µg/mL. Moreover, the solubility at 2 h in data set [4] (setting [7]) was over 1000 µg/mL. For the same compound, in data set [5], the highest concentration (Cmax) was 734 ng/mL and the half-life was 18 min.

In the case of `CC[C@H](C)[C@H](NC(=O)[C@H](CO)NC(=O)[C@H](CC(C)C)NC(=O)[C@H](CC(=O)O)NC(=O)[C@H](CO)NC(=O)[C@@H](NC(=O)[C@H](Cc1ccccc1)NC(=O)[C@@H](NC(=O)CNC(=O)[C@H](CCC(=O)O)NC(=O)C(C)(C)NC(=O)[C@@H](N)Cc1ccc(O)cc1)[C@@H](C)O)[C@@H](C)O)C(=O)N[C@@H](CCC(N)=O)C(=O)N[C@@H](CC(C)C)C(=O)N[C@@H](CCC(=O)O)C(=O)N[C@@H](CCCCN)C(=O)N[C@@H](CCCNC(=N)N)C(=O)N[C@@H](C)C(=O)N[C@@H](C)C(=O)NC(C)(C)C(=O)N[C@@H](CCC(=O)O)C(=O)N[C@@H](Cc1ccccc1)C(=O)N[C@H](C(=O)N[C@@H](CCC(=O)O)C(=O)N[C@@H](Cc1c[nH]c2ccccc12)C(=O)N[C@@H](CC(C)C)C(=O)N[C@@H](CCCCN)C(=O)N[C@@H](C)C(=O)NCC(=O)NCC(=O)N1CCC[C@H]1C(=O)N[C@@H](CO)C(=O)N[C@@H](CO)C(=O)NCC(=O)N[C@@H](C)C(=O)N1CCC[C@H]1C(=O)N1CCC[C@H]1C(=O)N1CCC[C@H]1C(=O)N[C@@H](CO)C(N)=O)[C@@H](C)CC` [SEQ ID NO: 9, Y-Aib-E-G-T-F-T-S-D-L-S-I-Q-L-E-K-R-A-A-Aib-EFIEWLKAGGPSSGAPPPSN H2] (H-Y[Aib]EGTFTSDLSIQLEKRAA[Aib]EFIEWLKAGGPSSGAPPPS-NH2), in data set [1], the “Stability (pH 4.5), % remaining peptide” value is 100% and the “Stability (pH 7.4), % remaining peptide” value worked out at 100%. The “maximal effect, glucose reduction” value in data set [3] was about 16 mmol/L. For the same compound, the solubility at 2 h in data set [4] (setting [6]) amounted to 875 µg/mL (≈ 213 µM). Besides, the solubility at 2 h in data set [4] (setting [7]) was determined as 892 µg/mL (≈ 217 µM).

Consider `CCCC[C@H](NC(=O)[C@H](CCC(N)=O)NC(=O)[C@@H](NC(=O)[C@H](CO)NC(=O)[C@H](CC(C)C)NC(=O)[C@H](CC(=O)O)NC(=O)[C@H](CO)NC(=O)[C@@H](NC(=O)[C@H](Cc1ccccc1)NC(=O)[C@@H](NC(=O)CNC(=O)[C@H](CCC(=O)O)NC(=O)C(C)(C)NC(=O)[C@@H](N)Cc1ccc(O)cc1)[C@@H](C)O)[C@@H](C)O)[C@@H](C)CC)C(=O)N[C@@H](CCC(=O)O)C(=O)N[C@@H](CCCCN)C(=O)N[C@@H](CCCNC(=N)N)C(=O)N[C@@H](C)C(=O)N[C@@H](C)C(=O)NC(C)(C)C(=O)N[C@@H](CCC(=O)O)C(=O)N[C@@H](Cc1ccccc1)C(=O)N[C@H](C(=O)N[C@@H](CCC(=O)O)C(=O)N[C@@H](Cc1c[nH]c2ccccc12)C(=O)N[C@@H](CC(C)C)C(=O)N[C@@H](CCCCN)C(=O)N[C@@H](C)C(=O)NCC(=O)NCC(=O)N1CCC[C@H]1C(=O)N[C@@H](CO)C(=O)N[C@@H](CO)C(=O)NCC(=O)N[C@@H](C)C(=O)N1CCC[C@H]1C(=O)N1CCC[C@H]1C(=O)N1CCC[C@H]1C(=O)N[C@@H](CO)C(N)=O)[C@@H](C)CC` [SEQ ID NO: 10, Y-Aib-E-G-T-F-T-S-D-L-S-I-Q-Nle-E-K-R-A-A-Aib-E-F-I-E-W-L-K-A-G-G-P-S-S-G-A-P-P-P-S-NH2] (H-Y[Aib]EGTFTSDLSIQ[Nle]EKRAA[Aib]EFIEWLKAGGPSSGAPPPS-NH2), for which, in data set [1], the “Stability (pH 4.5), % remaining peptide” value stood at 100% and the “Stability (pH 7.4), % remaining peptide” value came to 100%. In addition, in data set [4] (setting [6]), the solubility at 2 h is 960 µg/mL (≈ 234 µM). In addition, the solubility at 2 h in data set [4] (setting [7]) is over 1000 µg/mL.
